Each molecule was assayed against T1, DGKK (Diacylglycerol kinase kappa) (Homo sapiens, UniProt Q5KSL6) (assay: SILAC LC-MS ATP acyl phosphate probe competition, recombinant DGK-HEK293T lysates). Conditions: site DAGKa (K892); ATP 1 mM; Ketanserin, Ritanserin 100 μM; RF001 1 mM.
T1 construct: host or cells: SILAC HEK293T
T1 sequence (Q5KSL6 1-1271): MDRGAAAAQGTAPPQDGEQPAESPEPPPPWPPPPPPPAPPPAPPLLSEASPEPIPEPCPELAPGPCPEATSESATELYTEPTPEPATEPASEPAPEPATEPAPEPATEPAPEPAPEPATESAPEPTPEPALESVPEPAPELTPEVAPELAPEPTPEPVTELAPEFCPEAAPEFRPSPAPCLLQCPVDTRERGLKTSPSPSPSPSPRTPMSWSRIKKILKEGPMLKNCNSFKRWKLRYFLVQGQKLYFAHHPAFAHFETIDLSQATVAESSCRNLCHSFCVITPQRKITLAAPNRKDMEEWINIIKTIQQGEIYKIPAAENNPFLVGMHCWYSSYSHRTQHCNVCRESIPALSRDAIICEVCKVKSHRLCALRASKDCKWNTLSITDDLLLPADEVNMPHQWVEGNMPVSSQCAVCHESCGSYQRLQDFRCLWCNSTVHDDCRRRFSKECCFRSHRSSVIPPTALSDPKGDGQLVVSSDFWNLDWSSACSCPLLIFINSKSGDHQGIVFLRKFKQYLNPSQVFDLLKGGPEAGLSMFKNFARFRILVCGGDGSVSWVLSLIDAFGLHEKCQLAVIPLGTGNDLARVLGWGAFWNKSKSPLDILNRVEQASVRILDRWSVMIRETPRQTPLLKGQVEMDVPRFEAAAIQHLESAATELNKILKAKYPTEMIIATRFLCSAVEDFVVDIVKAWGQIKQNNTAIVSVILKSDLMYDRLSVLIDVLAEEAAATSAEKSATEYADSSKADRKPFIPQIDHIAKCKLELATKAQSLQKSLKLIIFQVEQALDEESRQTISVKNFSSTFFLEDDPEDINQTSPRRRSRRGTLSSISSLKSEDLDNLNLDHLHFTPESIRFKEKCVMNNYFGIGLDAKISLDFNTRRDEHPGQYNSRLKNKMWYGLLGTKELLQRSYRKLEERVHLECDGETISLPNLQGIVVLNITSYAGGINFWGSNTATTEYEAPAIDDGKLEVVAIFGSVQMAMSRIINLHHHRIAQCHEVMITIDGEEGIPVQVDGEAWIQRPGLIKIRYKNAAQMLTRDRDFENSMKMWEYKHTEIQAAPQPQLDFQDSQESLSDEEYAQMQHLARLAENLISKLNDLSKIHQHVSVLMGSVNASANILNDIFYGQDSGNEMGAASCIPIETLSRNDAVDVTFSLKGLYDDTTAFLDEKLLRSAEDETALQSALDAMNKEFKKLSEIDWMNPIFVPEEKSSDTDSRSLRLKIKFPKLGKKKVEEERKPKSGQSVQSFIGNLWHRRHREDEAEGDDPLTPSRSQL
Assay type: binding
Excerpt: Recombinant DGK proteins were produced by transient transfection of HEK293T cells with recombinant DNA. pDONR223-DGKK was a gift from William Hahn & David Root (Addgene plasmid #23487). pCSF107mT-GATEWAY-3′-FLAG was a gift from Todd Stukenberg (Addgene plasmid #67619). pCSF107mT-DGKK-FLAG construct was generated by recombination of the Addgene plasmids using the Gateway cloning system (Invitrogen). All other vectors were gifted to Dr. Kevin Lynch (University of Virginia, School of Medicine) by Dr. Kaoru Goto (Yamagata University, School of Medicine) and Dr. Fumio Sakane (Chiba University) and were kindly shared with us: pcDNA3-FLAG-DGKA (rat), pCMV-Tag2B-FLAG-DGKQ (human), pcDNA3-DGKE-3×Flag (human), and pCMV-SPORT6-HA-DGKZ (human). HEK293T cells were plated at a concentration of 400,000 cells in complete DMEM and grown to 50-60% confluency. A polyethyleneimine (PEI) stock solution was prepared (1 mg/mL, pH 7.4) and filter sterilized. Serum-free DMEM (600 μL) was mixed gently with 2.6 μg DNA and 20 μL of sterile PEI (1 mg/mL, pH 7.4) in a sterile microfuge tube. Mixtures were incubated for 30 min at 25° C. The mixture was then added drop-wise to each 10 cm^2 plate, rocked back and forth to mix, and placed back in the incubator. Cell pellets were harvested after two full days of growth, snap-frozen in liquid N2, and stored at −80° C. until use. Recombinant proteins were produced by transient transfection in SILAC HEK293T cells using the procedure described above, except that cells were plated at a concentration of 1×10^6 cells per 10 cm^2 plate and grown to ˜70% confluency prior to introducing transfection mixture.
Proteomes were diluted to 2 mg/ml in kinase buffer. The light and heavy proteomes (0.5 mg, 250 μL total reaction volume) were pre-treated with vehicle or compound, respectively (5 μL, DMSO (light) or 50× stock in DMSO (heavy)), mixed gently, and incubated at 25° C. for 30 min. […] After incubation, matched light and heavy proteomes were transferred and mixed in a 1:1 ratio in a two-dram vial containing 4:1:3 MeOH/CHCl3/H2O (2 mL MeOH, 500 AL CHCl3, 1.5 mL H2O) for extraction of proteins to remove excess probe, quickly vortexed, and centrifuged at 1,400×g for 3 min to pellet protein. Organic and aqueous layers were removed using a Pasteur pipette, and the protein pellet was transferred to a screw-top tube in 600 μL MeOH. A second extraction was performed by adding CHCl3 (150 μL) and H2O (600 μL) to each sample, vortexed, and centrifuged at 1,400×g for 3 min to pellet protein. Organic and aqueous layers were removed by pipetting. MeOH added to pellet (600 μL) and pellets were re-suspended by sonication (3×1 sec pulse, 20% amplitude) for a final extraction. Samples were then centrifuged at 17,000×g for 5 min to pellet protein and MeOH was removed by pipetting. The pellets were re-suspended in 10 M urea/25 mM ammonium bicarbonate ([…]), brought to a final volume of 1 mL with 25 mM ammonium bicarbonate, reduced with 10 mM DTT for 15 min at 65° C. allowed to cool, and then alkylated with 40 mM iodoacetamide for 30 min at 25° C. in the dark. To desalt the samples, each was transferred to a two-dram glass vial, and to the vial 4:1:2 MeOH/CHCl3/H2O (2 mL MeOH, 500 AL CHCl3, 1 mL H2O) was added. The vials were vortexed quickly, spun at 1.400×g for 3 min to pellet protein, and aqueous and organic layers were removed using a Pasteur pipette. The resulting protein pellet was transferred to a screw-top tube in 600 μL MeOH, and then CHCl3 (150 μL) and HO (600 μL) were added to extract protein a second time. The samples were vortexed quickly, centrifuged at 1,400×g to pellet protein, and the aqueous and organic layers were removed by pipetting. Resulting protein pellet was suspended in MeOH (600 μL) via sonication (3×1 sec pulse, 20% amplitude), centrifuged at 17,000×g for 5 min to pellet protein, and MeOH removed by pipetting. […]

| SILAC ratio, DGKK DAGKa probe-modified peptide | Compound |
| --- | --- |
| 0.2 | O=C(c1ccc(F)cc1)C1CCN(CCn2c(=O)[nH]c3ccccc3c2=O)CC1 [Ketanserin] |
| 1.6 | Fc1ccc(C(=C2CCNCC2)c2ccc(F)cc2)cc1 [RF001, 4-(Bis(4-fluorophenyl)methylene) piperidine] |

| Compound | SILAC ratio, DGKK DAGKa probe-modified peptide |
| --- | --- |
| Cc1nc2sccn2c(=O)c1CCN1CCC(=C(c2ccc(F)cc2)c2ccc(F)cc2)CC1 [Ritanserin] | 0.7 |

Source: patent US12643867B2, “Compositions and uses thereof” (University of Virginia Patent Foundation, priority 2017, dated 2026)
